From patent publication US8492376B2, “Heteroaryl-cyclohexyl-tetraazabenzo[e]azulenes” (Hoffmann-La Roche Inc., priority 2010, dated 2013)
Where a name gives a salt, the structure may show the parent alone.

Target: T1, human V1a receptor (Homo sapiens, UniProt P37288)
T1 construct: expressed in transfected cells; host or cells: HEK293 cells, transiently transfected; cell membranes
Test: human V1a receptor binding studies (3H-Vasopressin, SPA beads)
Settings: membranes from HEK293 cells transiently transfected with human V1a receptor, Ki calculated from IC50 by the Cheng-Prussoff equation, read-out: pKi (hV1a) (converted)
Experimental: The human V1a receptor was cloned by RT-PCR from total human liver RNA. The coding sequence was subcloned in an expression vector after sequencing to confirm the identity of the amplified sequence. […] Cell membranes were prepared from HEK293 cells transiently transfected with the expression vector and grown in 20 liter fermenters with the following protocol.
50 g of cells are resuspended in 30 ml freshly prepared ice cold Lyses buffer (50 mM HEPES, 1 mM EDTA, 10 mM magnesium dichloride adjusted to pH=7.4+complete cocktail of protease inhibitor (Roche Diagnostics)). Homogenized with Polytron for 1 min and solicited on ice for 2×2 minutes at 80% intensity (Vibrate solicitor). The preparation is centrifuged 20 min at 500 g at 4° C., the pellet is discarded and the supernatant centrifuged 1 hour at 43′000 g at 4° C. (19′000 rpm). The pellet is resuspended in 12.5 ml Lyses buffer+12.5 ml sucrose 20% and homogenized using a Polytron for 1-2 min. The protein concentration is determined by the Bradford method and aliquots are stored at −80° C. until use. For binding studies 60 mg Yttrium silicate SPA beads (Habersham®) are mixed with an aliquot of membrane in binding buffer (50 mM Tris, 120 mM sodium chloride, 5 mM potassium chloride, 2 mM calcium dichloride, 10 mM magnesium dichloride) for 15 minutes with mixing. 50 μl of bead/membrane mixture is then added to each well of a 96 well plate, followed by 50 μl of 4 nM 3H-Vasopressin (American Radiolabeled Chemicals). For total binding measurement 100 μl of binding buffer are added to the respective wells, for non-specific binding 100 μl of 8.4 mM cold vasopressin and for compound testing 100 μl of a serial dilution of each compound in 2% dimethyl sulfoxide. The plate is incubated 1 h at room temperature, centrifuged 1 min at 1000 g and counted on a Packard Top-Count. Non-specific binding counts are subtracted from each well and data is normalized to the maximum specific binding set at 100%. To calculate an IC50 the curve is fitted using a non-linear regression model (XLfit) and the Ki is calculated using the Cheng-Prussoff equation.

T1 sequence (P37288 whole entry): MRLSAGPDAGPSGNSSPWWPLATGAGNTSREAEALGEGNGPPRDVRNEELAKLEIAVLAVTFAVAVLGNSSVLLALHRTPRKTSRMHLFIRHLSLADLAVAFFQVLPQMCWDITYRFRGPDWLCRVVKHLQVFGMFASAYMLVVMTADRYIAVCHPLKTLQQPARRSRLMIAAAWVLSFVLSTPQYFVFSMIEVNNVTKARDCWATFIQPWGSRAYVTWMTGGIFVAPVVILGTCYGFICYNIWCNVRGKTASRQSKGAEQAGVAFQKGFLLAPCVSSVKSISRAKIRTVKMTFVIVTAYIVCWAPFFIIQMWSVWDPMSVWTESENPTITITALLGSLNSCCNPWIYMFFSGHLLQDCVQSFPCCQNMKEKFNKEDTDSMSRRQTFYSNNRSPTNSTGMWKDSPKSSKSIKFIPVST

Question: How did the Ki turn out when `Clc1ccc2c(c1)CNCc1nnc([C@H]3CC[C@H](c4ccccn4)CC3)n1-2` [Example 2, trans-8-Chloro-1-(4-pyridin-2-yl-cyclohexyl)-5,6-dihydro-4H-2,3,5,10b-tetraaza-benzo[e]azulene dihydrochloride] was run?
Answer: 10 nM

Question: Which Ki does the source give for `Cc1nccnc1[C@H]1CC[C@H](c2nnc3n2-c2ccc(Cl)cc2CN(C(=O)OC(C)(C)C)C3)CC1` [Example 75, trans-8-Chloro-1-[4-(3-methyl-pyrazin-2-yl)-cyclohexyl]-4H,6H-2,3,5,10b-tetraaza-benzo[e]azulene-5-carboxylic acid tert-butyl ester] here?
Answer: 1.2 nM

Question: `CN(C)CC(=O)N1Cc2cc(Cl)ccc2-n2c(nnc2[C@H]2CC[C@H](c3ncccc3F)CC2)C1` [Example 39, trans-1-{8-Chloro-1-[4-(3-fluoro-pyridin-2-yl)-cyclohexyl]-4H,6H-2,3,5,10b-tetraaza-benzo[e]azulen-5-yl}-2-dimethylamino-ethanone formate] was tested. Which Ki did it give?
Answer: 2.51 nM

Question: Which Ki does the source give for `Cc1nccnc1[C@H]1CC[C@H](c2nnc3n2-c2ccc(Cl)cc2CN(C)C3)CC1` [Example 77, trans-8-Chloro-5-methyl-1-[4-(3-methyl-pyrazin-2-yl)-cyclohexyl]-5,6-dihydro-4H-2,3,5,10b-tetraaza-benzo[e]azulene] here?
Answer: 5.13 nM

Question: `CC(C)(C)OC(=O)N1Cc2cc(Cl)ccc2-n2c(nnc2[C@H]2CC[C@H](c3cccnc3)CC2)C1` [Example 48, trans-8-Chloro-1-(4-pyridin-3-yl-cyclohexyl)-4H,6H-2,3,5,10b-tetraaza-benzo[e]azulene-5-carboxylic acid tert-butyl ester] was tested. Which Ki did it give?
Answer: 0.603 nM

Question: With `CNCCN1Cc2cc(Cl)ccc2-n2c(nnc2[C@H]2CC[C@H](c3ncccc3F)CC2)C1` [Example 36, trans-(2-{8-Chloro-1-[4-(3-fluoro-pyridin-2-yl)-cyclohexyl]-4H,6H-2,3,5,10b-tetraaza-benzo[e]azulen-5-yl}-ethyl)-methyl-amine] as the compound, how does the Ki read?
Answer: 28.2 nM

Question: How did the Ki turn out when `COc1cccc([C@H]2CC[C@H](c3nnc4n3-c3ccc(Cl)cc3CNC4)CC2)n1` [Example 14, trans-8-Chloro-1-[4-(6-methoxy-pyridin-2-yl)-cyclohexyl]-5,6-dihydro-4H-2,3,5,10b-tetraaza-benzo[e]azulene] was run?
Answer: 56.2 nM

Question: With `Clc1ccc2c(c1)CNCc1nnc([C@H]3CC[C@H](c4cccc(Cl)n4)CC3)n1-2` [Example 17, trans-8-Chloro-1-[4-(6-chloro-pyridin-2-yl)-cyclohexyl]-5,6-dihydro-4H-2,3,5,10b-tetraaza-benzo[e]azulene] as the compound, how does the Ki read?
Answer: 2.82 nM

Question: For `Fc1cccnc1[C@H]1CC[C@H](c2nnc3n2-c2ccc(Cl)cc2CNC3)CC1` [Example 29, trans-8-Chloro-1-[4-(3-fluoro-pyridin-2-yl)-cyclohexyl]-5,6-dihydro-4H-2,3,5,10b-tetraaza-benzo[e]azulene], which Ki is on record?
Answer: 1.51 nM

Question: For `CN1Cc2cc(Cl)ccc2-n2c(nnc2[C@H]2CC[C@H](c3ncccc3Cl)CC2)C1` [Example 84, trans-8-Chloro-1-[4-(3-chloro-pyridin-2-yl)-cyclohexyl]-5-methyl-5,6-dihydro-4H-2,3,5,10b-tetraaza-benzo[e]azulene], which Ki is on record?
Answer: 0.501 nM

Question: Which Ki does the source give for `COc1cccc([C@H]2CC[C@H](c3nnc4n3-c3ccc(Cl)cc3CN(C(=O)OC(C)(C)C)C4)CC2)n1` [Example 13, trans-8-Chloro-1-[4-(6-methoxy-pyridin-2-yl)-cyclohexyl]-4H,6H-2,3,5,10b-tetraaza-benzoazulene-5-carboxylic acid tert-butyl ester] here?
Answer: 0.501 nM

Question: How did the Ki turn out when `CS(=O)(=O)N1Cc2cc(Cl)ccc2-n2c(nnc2[C@H]2CC[C@H](c3ncccc3F)CC2)C1` [Example 40, trans-8-Chloro-1-[4-(3-fluoro-pyridin-2-yl)-cyclohexyl]-5-methanesulfonyl-5,6-dihydro-4H-2,3,5,10b-tetraaza-benzo[e]azulene] was run?
Answer: 0.178 nM

Question: With `CC(C)N1Cc2cc(Cl)ccc2-n2c(nnc2[C@H]2CC[C@H](c3ncccc3F)CC2)C1` [Example 32, trans-8-Chloro-5-isopropyl-[4-(3-fluoro-pyridin-2-yl)-cyclohexyl]-5,6-dihydro-4H-2,3,5,10b-tetraaza-benzo[e]azulene] as the compound, how does the Ki read?
Answer: 0.562 nM

Question: Which Ki does the source give for `Clc1ccc2c(c1)CNCc1nnc([C@H]3CC[C@H](c4ncccn4)CC3)n1-2` [Example 59, trans-8-Chloro-1-(4-pyrimidin-2-yl-cyclohexyl)-5,6-dihydro-4H-2,3,5,10b-tetraaza-benzo[e]azulene] here?
Answer: 9.33 nM

Question: How did the Ki turn out when `CC(C)c1cccc([C@H]2CC[C@H](c3nnc4n3-c3ccc(Cl)cc3CN(C)C4)CC2)n1` [Example 12, trans-8-Chloro-1-[4-(6-isopropyl-pyridin-2-yl)-cyclohexyl]-5-methyl-5,6-dihydro-4H-2,3,5,10b-tetraaza-benzo[e]azulene] was run?
Answer: 8.51 nM

Question: With `CN1Cc2cc(Cl)ccc2-n2c(nnc2[C@H]2CC[C@H](c3cccc(Cl)n3)CC2)C1` [Example 18, trans-8-Chloro-1-[4-(6-chloro-pyridin-2-yl)-cyclohexyl]-5-methyl-5,6-dihydro-4H-2,3,5,10b-tetraaza-benzo[e]azulene] as the compound, how does the Ki read?
Answer: 0.603 nM

Question: Which Ki does the source give for `Cc1nccnc1[C@H]1CC[C@H](c2nnc3n2-c2ccc(Cl)cc2CNC3)CC1` [Example 76, trans-8-Chloro-1-[4-(3-methyl-pyrazin-2-yl)-cyclohexyl]-5,6-dihydro-4H-2,3,5,10b-tetraaza-benzo[e]azulene] here?
Answer: 44.7 nM

Question: How did the Ki turn out when `CN1Cc2cc(Cl)ccc2-n2c(nnc2[C@H]2CC[C@H](c3ccccn3)CC2)C1` [Example 3, trans-8-Chloro-5-methyl-1-(4-pyridin-2-yl-cyclohexyl)-5,6-dihydro-4H-2,3,5,10b-tetraaza-benzo[e]azulene] was run?
Answer: 0.794 nM

Question: Which Ki does the source give for `CN1Cc2cc(Cl)ccc2-n2c(nnc2[C@H]2CC[C@@H](c3ncccc3F)CC2)C1` [Example 47, cis-8-Chloro-1-[4-(3-fluoro-pyridin-2-yl)-cyclohexyl]-5-methyl-5,6-dihydro-4H-2,3,5,10b-tetraaza-benzo[e]azulene] here?
Answer: 25.1 nM

Question: `Cc1cncc([C@H]2CC[C@H](c3nnc4n3-c3ccc(Cl)cc3CNC4)CC2)n1` [Example 73, trans-8-Chloro-1-[4-(6-methyl-pyrazin-2-yl)-cyclohexyl]-5,6-dihydro-4H-2,3,5,10b-tetraaza-benzo[e]azulene] was tested. Which Ki did it give?
Answer: 55 nM

Question: `CC(C)(C)OC(=O)N1Cc2cc(Cl)ccc2-n2c(nnc2[C@H]2CC[C@H](c3cccnc3F)CC2)C1` [Example 54, trans-8-Chloro-1-[4-(2-fluoro-pyridin-3-yl)-cyclohexyl]-4H,6H-2,3,5,10b-tetraaza-benzo[e]azulene-5-carboxylic acid tert-butyl ester] was tested. Which Ki did it give?
Answer: 1 nM

Question: With `Cc1nccc([C@H]2CC[C@H](c3nnc4n3-c3ccc(Cl)cc3CNC4)CC2)n1` [Example 67, trans-8-Chloro-1-[4-(2-methyl-pyrimidin-4-yl)-cyclohexyl]-5,6-dihydro-4H-2,3,5,10b-tetraaza-benzo[e]azulene] as the compound, how does the Ki read?
Answer: 1100 nM

Question: Which Ki does the source give for `CC(C)(C)OC(=O)N1Cc2cc(Cl)ccc2-n2c(nnc2[C@H]2CC[C@H](c3ncc(F)cc3F)CC2)C1` [Example 85, trans-8-Chloro-1-[4-(3,5-difluoro-pyridin-2-yl)-cyclohexyl]-4H,6H-2,3,5,10b-tetraaza-benzo[e]azulene-5-carboxylic acid tert-butyl ester] here?
Answer: 1.1 nM

Question: `CCc1cccc([C@H]2CC[C@H](c3nnc4n3-c3ccc(Cl)cc3CN(C)C4)CC2)n1` [Example 9, trans-8-Chloro-1-[4-(6-ethyl-pyridin-2-yl)-cyclohexyl]-5-methyl-5,6-dihydro-4H-2,3,5,10b-tetraaza-benzo[e]azulene] was tested. Which Ki did it give?
Answer: 1.1 nM

Question: Which Ki does the source give for `CN1Cc2cc(Cl)ccc2-n2c(nnc2[C@H]2CC[C@H](c3cccnn3)CC2)C1` [Example 81, trans-8-Chloro-5-methyl-1-(4-pyridazin-3-yl-cyclohexyl)-5,6-dihydro-4H-2,3,5,10b-tetraaza-benzo[e]azulene] here?
Answer: 4.68 nM

Question: How did the Ki turn out when `Clc1ccc2c(c1)CNCc1nnc([C@H]3CC[C@H](c4cccnc4)CC3)n1-2` [Example 49, trans-8-Chloro-1-(4-pyridin-3-yl-cyclohexyl)-5,6-dihydro-4H-2,3,5,10b-tetraaza-benzo[e]azulene] was run?
Answer: 33.9 nM

Question: For `Cc1cncc([C@H]2CC[C@H](c3nnc4n3-c3ccc(Cl)cc3CN(C(=O)OC(C)(C)C)C4)CC2)n1` [Example 72, trans-8-Chloro-1-[4-(6-methyl-pyrazin-2-yl)-cyclohexyl]-4H,6H-2,3,5,10b-tetraaza-benzo[e]azulene-5-carboxylic acid tert-butyl ester], which Ki is on record?
Answer: 1.2 nM

Question: For `CC(C)c1cccc([C@H]2CC[C@H](c3nnc4n3-c3ccc(Cl)cc3CNC4)CC2)n1` [Example 11, trans-8-Chloro-1-[4-(6-isopropyl-pyridin-2-yl)-cyclohexyl]-5,6-dihydro-4H-2,3,5,10b-tetraaza-benzo[e]azulene hydrochloride], which Ki is on record?
Answer: 70.8 nM
